# How the values were obtained:
# Assay in all cases: ≥ marks a high value that may be exact or a test limit, other limits are often not marked, values filed in µg/mL are converted to µM
# [1] = system: Klebsiella pneumoniae ATCC 700603
# [2] = system: Pseudomonas aeruginosa ATCC 9027
# [3] = system: Escherichia coli ATCC 25922
# [4] = system: Bacillus subtilis ATCC 23857
# [5] = system: Staphylococcus aureus ATCC 25923
# Escherichia coli B = system: Escherichia coli B
# Staphylococcus aureus = system: Staphylococcus aureus
# Pseudomonas aeruginosa = system: Pseudomonas aeruginosa
# Bacillus subtilis 168 = system: Bacillus subtilis 168
# [6] = system: Pseudomonas aeruginosa ATCC 27853
# [7] = system: Enterococcus faecalis ATCC 29212
# [8] = system: Acinetobacter baumannii ATCC 19606
# [9] = system: Staphylococcus epidermidis ATCC 12228
# [10] = system: Escherichia coli DH5alpha
# Acinetobacter baumannii = system: Acinetobacter baumannii
# [11] = system: Candida albicans ATCC 10231
Structure (SMILES),MIC [3] [µM],MIC [4] [µM],MIC [5] [µM],MIC (Escherichia coli B) [µM],MIC (Staphylococcus aureus) [µM],MIC (Pseudomonas aeruginosa) [µM],MIC (Bacillus subtilis 168) [µM],further results
CC[C@H](C)[C@H](NC(=O)[C@H](Cc1cnc[nH]1)NC(=O)[C@H](CCCCN)NC(=O)[C@H](CC(C)C)NC(=O)[C@H](CC(C)C)NC(=O)[C@H](CO)NC(=O)[C@H](CCSC)NC(=O)[C@H](C)NC(=O)[C@H](CCCCN)NC(=O)CN)C(=O)N[C@@H](CC(C)C)C(=O)N[C@@H](CCCCN)C(N)=O [GKAMSLLKHILK],–,–,–,≥ 40,> 100,> 100,9.3,–
CC(C)C[C@H](NC(=O)[C@H](CC(C)C)NC(=O)[C@@H](NC(=O)[C@H](CCCCN)NC(=O)[C@H](C)NC(=O)[C@H](CCCN=C(N)N)NC(=O)[C@H](CCCCN)NC(=O)[C@H](C)NC(=O)[C@H](CC(C)C)NC(=O)CN)[C@@H](C)O)C(N)=O [GLAKRAKTLL],> 512,≥ 512,> 512,–,–,–,–,MIC [6]: > 512 µM; MIC [7]: > 512 µM; MIC [8]: > 512 µM; MIC [1]: > 512 µM; MIC [9]: > 512 µM
CC[C@H](C)[C@H](NC(=O)CNC(=O)[C@@H](N)CCSC)C(=O)N[C@H](C(=O)N[C@@H](C)C(=O)NCC(=O)N[C@H](C(=O)N[C@H](C(=O)N[C@@H](CCCCN)C(=O)N[C@@H](Cc1ccccc1)C(=O)N[C@H](C(=O)N[C@@H](CCCCN)C(=O)NCC(=O)N[C@@H](CC(C)C)C(=O)N[C@H](C(=O)N[C@@H](CCC(=O)O)C(=O)N[C@@H](CCCCN)C(=O)N[C@@H](Cc1ccccc1)C(=O)N[C@H](C(=O)NCC(=O)N[C@@H](CCCCN)C(=O)O)[C@@H](C)O)[C@@H](C)CC)[C@@H](C)CC)[C@@H](C)CC)[C@@H](C)CC)[C@@H](C)CC [MGIIAGIIKFIKGLIEKFTGK],> 128,≥ 128,–,–,–,–,–,–
CSCC[C@H](NC(=O)[C@H](Cc1c[nH]c2ccccc12)NC(=O)[C@H](CCCCN)NC(=O)CN)C(=O)N[C@@H](CO)C(=O)N[C@@H](CC(C)C)C(=O)N[C@@H](CC(C)C)C(=O)N[C@@H](CCCCN)C(=O)N[C@@H](Cc1cnc[nH]1)C(=O)N[C@@H](Cc1c[nH]c2ccccc12)C(=O)N[C@@H](CC(C)C)C(=O)N[C@@H](CCCCN)C(N)=O [GKWMSLLKHWLK],–,–,–,3.5,13.8,25,1.3,–
CC[C@H](C)[C@H](NC(=O)[C@H](CCC(N)=O)NC(=O)[C@H](CCCCN)NC(=O)[C@H](CC(C)C)NC(=O)[C@H](CC(C)C)NC(=O)[C@H](CO)NC(=O)[C@H](CCSC)NC(=O)[C@H](Cc1c[nH]c2ccccc12)NC(=O)[C@H](CCCCN)NC(=O)CN)C(=O)N[C@@H](CC(C)C)C(=O)N[C@@H](CCCCN)C(N)=O [GKWMSLLKQILK],–,–,–,2.5,10.8,50,1.8,–
CC[C@H](C)[C@H](NC(=O)[C@H](CCCCN)NC(=O)[C@H](CCCCN)NC(=O)[C@@H](NC(=O)[C@@H](NC(=O)[C@H](CCCCN)NC(=O)[C@H](CCCCN)NC(=O)[C@@H](NC(=O)[C@@H](NC(=O)CN)[C@@H](C)CC)[C@@H](C)CC)[C@@H](C)CC)[C@@H](C)CC)C(N)=O [GIIKKIIKKI],≥ 32,16,≥ 128,–,–,–,30,MIC [6]: ≥ 64 µM; MIC [8]: ≥ 64 µM; MIC [1]: ≥ 128 µM; MIC [10]: ≥ 125 µM
CC[C@H](C)[C@H](NC(=O)CNC(=O)[C@H](CCCN=C(N)N)NC(=O)[C@H](Cc1ccc(O)cc1)NC(=O)[C@@H](NC(=O)[C@@H](NC(=O)[C@H](CCCN=C(N)N)NC(=O)[C@H](Cc1ccccc1)NC(=O)[C@@H](NC(=O)[C@H](Cc1c[nH]c2ccccc12)NC(=O)[C@H](Cc1c[nH]c2ccccc12)NC(=O)[C@@H](N)CCCCN)C(C)C)C(C)C)C(C)C)C(=O)N[C@H](C(=O)N[C@@H](Cc1ccc(O)cc1)C(=O)N[C@@H](CCCN=C(N)N)C(=O)N[C@@H](CCCN=C(N)N)C(=O)N[C@H](C(=O)N[C@@H](CCCN=C(N)N)C(=O)N[C@@H](Cc1c[nH]c2ccccc12)C(=O)N[C@@H](CCCCN)C(=O)O)C(C)C)C(C)C [KWWVFRVVYRGIVYRRVRWK],–,–,–,–,–,–,–,MIC [10]: 12.5 µM
CC[C@H](C)[C@H](NC(=O)[C@H](Cc1cnc[nH]1)NC(=O)[C@H](CCCCN)NC(=O)[C@H](CC(C)C)NC(=O)[C@H](C)NC(=O)[C@H](CO)NC(=O)[C@H](CCSC)NC(=O)[C@H](Cc1c[nH]c2ccccc12)NC(=O)[C@H](CCCCN)NC(=O)CN)C(=O)N[C@@H](CC(C)C)C(=O)N[C@@H](CCCCN)C(N)=O [GKWMSALKHILK],–,–,–,20,130,100,2.7,–
CC[C@H](C)[C@H](NC(=O)[C@H](C)N)C(=O)N[C@@H](CC(C)C)C(=O)N[C@@H](CCCN=C(N)N)C(=O)N[C@@H](CCCCN)C(=O)N[C@@H](C)C(=O)N[C@H](C(=O)N[C@@H](CCCN=C(N)N)C(=O)N[C@@H](CCCN=C(N)N)C(=O)N[C@@H](CC(C)C)C(=O)N[C@H](C(=O)N[C@@H](CCC(N)=O)C(=O)N[C@@H](CC(C)C)C(=O)N[C@H](C(=O)N[C@H](C(=O)N[C@@H](CO)C(=O)NCC(=O)O)C(C)C)[C@@H](C)CC)C(C)C)[C@@H](C)O [AILRKATRRLVQLIVSG],> 25,–,> 25,–,–,–,–,MIC [1]: > 25 µM; MIC [2]: > 25 µM; MIC (Acinetobacter baumannii): 25 µM
CC(C)C[C@H](NC(=O)[C@H](Cc1ccc(O)cc1)NC(=O)[C@H](CCCCN)NC(=O)[C@H](CC(C)C)NC(=O)[C@H](CC(C)C)NC(=O)[C@H](CCCCN)NC(=O)[C@H](CCCCN)NC(=O)[C@H](Cc1ccccc1)NC(=O)[C@H](CC(C)C)NC(=O)[C@H](CCCN=C(N)N)NC(=O)[C@@H](N)CCCCN)C(=O)N[C@@H](CCCN=C(N)N)C(=O)N[C@@H](CCCCN)C(=O)N[C@@H](Cc1ccccc1)C(=O)O [KRLFKKLLKYLRKF],0.531,–,0.531,–,–,2.13,–,MIC [6]: 1.06 µM; MIC [8]: 1.06 µM; MIC [11]: 2.13 µM; MIC (Acinetobacter baumannii): 1.06 µM
CC[C@H](C)[C@H](NC(=O)CN)C(=O)N[C@@H](CCCCN)C(=O)N[C@@H](CCCN=C(N)N)C(=O)NCC(=O)N[C@H](C(=O)N[C@H](C(=O)N[C@@H](CCCCN)C(=O)N[C@H](C(=O)N[C@H](C(=O)N[C@@H](CCCCN)C(=O)N[C@@H](CCCN=C(N)N)C(N)=O)[C@@H](C)CC)[C@@H](C)CC)[C@@H](C)CC)[C@@H](C)CC [GIKRGIIKIIKR],> 128,≥ 32,–,–,–,–,–,–

# The next lines start with results.
MIC [3] [µM],MIC [4] [µM],MIC [5] [µM],MIC (Escherichia coli B) [µM],MIC (Staphylococcus aureus) [µM],MIC (Pseudomonas aeruginosa) [µM],MIC (Bacillus subtilis 168) [µM],Structure (SMILES),further results
8,8,32,–,–,–,–,CC[C@H](C)[C@H](NC(=O)[C@H](CCCCN)NC(=O)[C@H](CCCCN)NC(=O)[C@H](C)NC(=O)[C@@H](NC(=O)[C@H](C)NC(=O)[C@H](CC(C)C)NC(=O)[C@H](C)NC(=O)[C@H](C)NC(=O)[C@H](CCCCN)NC(=O)[C@H](CC(C)C)NC(=O)[C@H](CC(N)=O)NC(=O)[C@@H](N)CC(C)C)C(C)C)C(=O)N[C@@H](CC(C)C)C(N)=O [LNLKAALAVAKKIL],MIC [1]: 16 µM; MIC [2]: 32 µM
–,–,–,2.3,9.2,50,1.1,CC[C@H](C)[C@H](NC(=O)[C@H](Cc1cnc[nH]1)NC(=O)[C@H](CCCCN)NC(=O)[C@H](CC(C)C)NC(=O)[C@H](CC(C)C)NC(=O)[C@H](CO)NC(=O)[C@H](CCSC)NC(=O)[C@H](Cc1c[nH]c2ccccc12)NC(=O)[C@H](CCCCN)NC(=O)[C@@H](N)CO)C(=O)N[C@@H](CC(C)C)C(=O)N[C@@H](CCCCN)C(N)=O [SKWMSLLKHILK],–
–,–,–,1.4,9,23.1,0.7,CC[C@H](C)[C@H](NC(=O)[C@H](CCCCN)NC(=O)[C@H](CCCCN)NC(=O)[C@H](Cc1c[nH]c2ccccc12)NC(=O)[C@@H](NC(=O)[C@@H](N)CC(N)=O)C(C)C)C(=O)N[C@@H](CC(C)C)C(=O)NCC(=O)N[C@@H](CCCCN)C(=O)N[C@H](C(=O)N[C@H](C(=O)N[C@@H](CCCCN)C(=O)N[C@H](C(=O)N[C@H](C(=O)N[C@@H](CCCCN)C(N)=O)C(C)C)C(C)C)[C@@H](C)CC)[C@@H](C)CC [NVWKKILGKIIKVVK],–
–,–,–,5,> 100,100,0.9,CC[C@H](C)[C@H](NC(=O)[C@H](CCCCN)NC(=O)[C@@H]1CCCN1C(=O)[C@H](CC(C)C)NC(=O)[C@@H](NC(=O)[C@H](CCCCN)NC(=O)[C@H](CCCCN)NC(=O)[C@H](Cc1c[nH]c2ccccc12)NC(=O)[C@H](CC(N)=O)NC(=O)[C@@H](N)C(C)C)C(C)C)C(=O)N[C@H](C(=O)N[C@@H](CCCCN)C(=O)N[C@H](C(=O)N[C@@H](C)C(=O)N[C@@H](CCCCN)C(N)=O)C(C)C)[C@@H](C)CC [VNWKKVLPKIIKVAK],–

# Source: DBAASP
